Laboratory results: PubChem BioAssay (NCI)
“And” between values parts separate entries of the source, which are not always exact repeats. Equal values may be shown once.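 Grown in 96-well plates, cells were treated for 48 hours with each compound at five concentrations. Insufficient inhibition: endpoint recorded as highest concentration tested. Definition used: TGI = concentration required for complete inhibition of growth.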

What follows are compounds tested on NCI-H23 lung (assay: NCI anticancer screen, dose series, 48 h).

Compared with COC(=O)/C=C\C(C#N)(C#N)N=Cc1ccc(C)cc1, Cc1ccc(S(=O)(=O)n2c3c(c4ccccc42)CCN2C[C@H]([C@H](C)Br)CC[C@@H]32)cc1 is higher in TGI: 15.1 µM for the first, over 100 µM for the second.

CC(c1ccccc1)N1CCN(C(C)c2ccccc2)CC1 (stereo not given) and CC(NC(=O)Cc1ccccc1)NC(=O)C(C)C(=O)Nc1ccccc1 (stereo not given) cannot be ordered by TGI: over 100 µM for the first, over 100 µM for the second.

CCCCCC#CCOC(=O)C(=[N+]=[N-])P(=O)(c1ccccc1)c1ccccc1 and O=C(/C=C/c1ccccc1)Oc1ccc(C(=O)/C=C/c2ccccc2)cc1 cannot be ordered by TGI: over 10 µM for the first, 22.4 µM for the second.

COc1ccc(N2C(=O)CC(=O)N(NC(=O)C(C)Oc3ccccc3C)C2=S)cc1 (stereo not given) and NS(=O)(=O)c1ccc(NC(=S)/N=C/C2=C(O)c3ccccc3C2=O)cc1 cannot be ordered by TGI: over 100 µM for the first, over 100 µM for the second.

Compared with COc1cc(OC)cc(C(=O)CC(=O)c2cc(OC)cc(OC)c2)c1, CNc1cc2c(c3ccccc13)C(CCl)CN2C(=O)c1cc2cc(OC)c(OC)c(OC)c2[nH]1 (stereo not given) is lower in TGI: over 100 µM for the first, 0.00191 µM for the second.

First: COc1ccc(C2c3cn[nH]c3CC3CCCCC32)cc1 (stereo not given)
Second: COC(=O)C(Cc1ccc2c(c1)CCC2)Cc1ccc2c(c1)CCC2
The TGI of the first is lower: 33.6 µM for the first, over 100 µM for the second.

C/C(=N\N=C1/C(=O)OC(c2ccccc2)=C1C(=O)c1ccccc1)c1ccc([N+](=O)[O-])cc1 and O=C1c2ccccc2C(=O)N1n1c(Cc2ccc([N+](=O)[O-])cc2)n[nH]c1=O cannot be ordered by TGI: over 100 µM for the first, over 100 µM for the second.

First: O=C(O)[C@H]1CCCN1CP(=O)(O)CN1CCC[C@@H]1C(=O)O
Second: CC(C)c1cc2c(c(O)c1O)[C@@]1(C(=O)O)CCCC(C)(C)[C@@H]1CC2
The TGI of the first is higher: over 100 µM for the first, 46.9 µM for the second.

O=S(=O)(O)C(CO)c1ccccc1 (stereo not given) (tested in a mixture with another compound) and O=c1oc2cc(O)ccc2c(O)c1C(c1ccccc1)c1c(O)c2ccc(O)cc2oc1=O cannot be ordered by TGI: over 100 µM for the first, over 100 µM for the second.

Going from COc1ccc(C2OC(c3ccncc3)=NN2C)cc1F (stereo not given) to COC1=CC(=O)c2c(c(-c3nc(C)cs3)cn2C)C1=O, the TGI falls from over 100 µM to 6.92 µM.

Cc1nc(C)c(C(=O)NNC(=O)C[N+](C)(C)C)cc1C(=O)NNC(=O)C[N+](C)(C)C and C=C(C(=O)OCC)C(=O)OCC cannot be ordered by TGI: over 100 µM for the first, over 100 µM for the second.

First: Cc1c(O)nc(-n2[nH]c3c(c2=O)CCCC3)[nH]c1=O
Second: CC(C)SC(=S)Sc1c(Cl)c(Cl)nc(Cl)c1Cl
The TGI of the first is higher: over 100 µM for the first, 29 µM for the second.

First: CCCNc1ncnc2c1ncn2C
Second: CCCCCCCCCCCC[S+](C)C
The TGI of the first is higher: over 100 µM for the first, 19.7 µM for the second.

With CCOS(C)(=O)=O the TGI was over 100 µM.

The compounds below were run on SNB-75 CNS (assay: NCI anticancer screen, dose series, 48 h).

CC1=CCC([C@@](C)(O)CCCC(C)(C)N=C=S)CC1 (stereo not given in full) and CC(C)c1cc2c(c(O)c1O)[C@@]1(C(=O)O)CCCC(C)(C)[C@@H]1CC2 are within 1.5-fold of each other in TGI: 32.4 µM for the first, 34 µM for the second.

Going from CCN1CN(c2ccccc2)C2(CCN(CC3COc4ccccc4O3)CC2)C1=O (stereo not given) to O=C1OC(C2Cc3ccc4ccccc4c3C2=O)c2ccccc21 (stereo not given), the TGI rises from 94 µM to over 100 µM.

Compared with C=C1C(=O)CC2C1CC(=O)/C(C)=C/CCC(C)(O)C2O (stereo not given), C[C@H](CCC(=O)O)[C@H]1CC[C@H]2[C@@H]3C(=O)C[C@@H]4C[C@H](O)CC[C@]4(C)[C@H]3C[C@H](O)[C@]12C is higher in TGI: 28 µM for the first, over 100 µM for the second.

O=C1C=C/C(=N\N=C(c2ccccc2)c2ccccc2)O1 and O=C(/C=C/c1ccccc1)Oc1ccc(C(=O)/C=C/c2ccccc2)cc1 cannot be ordered by TGI: over 10 µM for the first, 19.8 µM for the second.

N[C@@H](Cc1ccccc1)C(=O)N1CCC[C@@H]1P(=O)(Oc1ccccc1)Oc1ccccc1 and CC(NC(=O)Cc1ccccc1)NC(=O)C(C)C(=O)Nc1ccccc1 (stereo not given) cannot be ordered by TGI: over 100 µM for the first, over 100 µM for the second.

First: O=c1[nH][nH]c(=O)n1CCCCCCn1c(=O)[nH][nH]c1=O
Second: CCCCCCCCCCCC[S+](C)C
The TGI of the first is higher: over 100 µM for the first, 16.6 µM for the second.

Compared with CC(=O)NC1C(OCc2ccccc2)OC(CO)C(O)C1OCC(=O)N[C@@H](C)C(=O)N[C@H](CCC(=O)NCCCNc1c2ccccc2nc2cccc([N+](=O)[O-])c12)C(N)=O (stereo not given in full), COc1ccc(N2C(=O)CC(=O)N(NC(=O)C(C)Oc3ccccc3C)C2=S)cc1 (stereo not given) is higher in TGI: 0.362 µM for the first, over 100 µM for the second.

COc1ccc(-c2nc(SCC(=O)NNC(=S)Nc3ccccc3)[nH]c2-c2ccc(OC)cc2)cc1 and COc1ccc(C(=O)/C=C/c2ccc(OCCCOc3ccc(/C=C/C(=O)c4ccc(OC)cc4)cc3)cc2)cc1 cannot be ordered by TGI: over 100 µM for the first, over 100 µM for the second.

O=C(O)c1ccccc1CC(Cc1ccc2c(c1)CCC2)C(=O)O (stereo not given) and COC(=O)C(Cc1ccc2c(c1)CCC2)Cc1ccc2c(c1)CCC2 cannot be ordered by TGI: over 100 µM for the first, over 100 µM for the second.

Going from Cn1c(SCc2ccc(F)cc2)nnc1C12CC3CC(CC(C3)C1)C2 to COc1ccc(C2c3cn[nH]c3CC3CCCCC32)cc1 (stereo not given), the TGI falls from over 100 µM to 27.2 µM.

Going from COC(=O)/C=C\C(C#N)(C#N)N=Cc1ccc(C)cc1 to Cc1ccc(S(=O)(=O)n2c3c(c4ccccc42)CCN2C[C@H]([C@H](C)Br)CC[C@@H]32)cc1, the TGI rises from 31 µM to over 100 µM.

CCCCCC#CCOC(=O)C(=[N+]=[N-])P(=O)(c1ccccc1)c1ccccc1 and O=S(=O)(O)C(CO)c1ccccc1 (stereo not given) (tested in a mixture with another compound) cannot be ordered by TGI: over 10 µM for the first, over 100 µM for the second.

Compared with COc1cc(OC)cc(C(=O)CC(=O)c2cc(OC)cc(OC)c2)c1, CNc1cc2c(c3ccccc13)C(CCl)CN2C(=O)c1cc2cc(OC)c(OC)c(OC)c2[nH]1 (stereo not given) is lower in TGI: over 100 µM for the first, 0.00802 µM for the second.

First: O=C(O)[C@H]1CCCN1CP(=O)(O)CN1CCC[C@@H]1C(=O)O
Second: O=C(O)CN1CCN2CCCCCN(CC1)CCN(CC(=O)O)CC2
The TGI of the first is higher: over 100 µM for the first, 95.3 µM for the second.

Going from O=C1c2ccccc2C(=O)N1n1c(Cc2ccc([N+](=O)[O-])cc2)n[nH]c1=O to NS(=O)(=O)c1ccc(NC(=S)/N=C/C2=C(O)c3ccccc3C2=O)cc1, the TGI falls from over 100 µM to 76.4 µM.

Cc1nc(C)c(C(=O)NNC(=O)C[N+](C)(C)C)cc1C(=O)NNC(=O)C[N+](C)(C)C and C=C(C(=O)OCC)C(=O)OCC cannot be ordered by TGI: over 100 µM for the first, over 100 µM for the second.

First: O=c1oc2cc(O)ccc2c(O)c1C(c1ccccc1)c1c(O)c2ccc(O)cc2oc1=O
Second: COC1=CC(=O)c2c(c(-c3nc(C)cs3)cn2C)C1=O
The TGI of the first is higher: over 100 µM for the first, 5.42 µM for the second.

CCCNc1ncnc2c1ncn2C and O=C(O)CN1CCNCCN(CC(=O)O)CCN(CC(=O)O)CCNCC1 cannot be ordered by TGI: over 100 µM for the first, over 100 µM for the second.

What follows are compounds tested on T-47D breast (assay: NCI anticancer screen, dose series, 48 h).

CC1=CCC([C@@](C)(O)CCCC(C)(C)N=C=S)CC1 (stereo not given in full) and CC(C)c1cc2c(c(O)c1O)[C@@]1(C(=O)O)CCCC(C)(C)[C@@H]1CC2 are within 1.5-fold of each other in TGI: 44.2 µM for the first, 55 µM for the second.

First: CCN1CN(c2ccccc2)C2(CCN(CC3COc4ccccc4O3)CC2)C1=O (stereo not given)
Second: CC(c1ccccc1)N1CCN(C(C)c2ccccc2)CC1 (stereo not given)
The TGI of the first is lower: 67.4 µM for the first, over 100 µM for the second.

First: C=C1C(=O)CC2C1CC(=O)/C(C)=C/CCC(C)(O)C2O (stereo not given)
Second: Cc1c(O)nc(-n2[nH]c3c(c2=O)CCCC3)[nH]c1=O
The TGI of the first is lower: 3.96 µM for the first, over 100 µM for the second.

O=C1C=C/C(=N\N=C(c2ccccc2)c2ccccc2)O1 and C/C(=N\N=C1/C(=O)OC(c2ccccc2)=C1C(=O)c1ccccc1)c1ccc([N+](=O)[O-])cc1 cannot be ordered by TGI: over 10 µM for the first, over 100 µM for the second.

Going from N[C@@H](Cc1ccccc1)C(=O)N1CCC[C@@H]1P(=O)(Oc1ccccc1)Oc1ccccc1 to O=C(/C=C/c1ccccc1)Oc1ccc(C(=O)/C=C/c2ccccc2)cc1, the TGI falls from over 100 µM to 15.6 µM.

First: O=c1[nH][nH]c(=O)n1CCCCCCn1c(=O)[nH][nH]c1=O
Second: CCCCCCCCCCCC[S+](C)C
The TGI of the first is higher: over 100 µM for the first, 3.37 µM for the second.

C[C@H](CCC(=O)O)[C@H]1CC[C@H]2[C@@H]3C(=O)C[C@@H]4C[C@H](O)CC[C@]4(C)[C@H]3C[C@H](O)[C@]12C and O=C(O)[C@H]1CCCN1CP(=O)(O)CN1CCC[C@@H]1C(=O)O cannot be ordered by TGI: over 100 µM for the first, over 100 µM for the second.

First: CC(=O)NC1C(OCc2ccccc2)OC(CO)C(O)C1OCC(=O)N[C@@H](C)C(=O)N[C@H](CCC(=O)NCCCNc1c2ccccc2nc2cccc([N+](=O)[O-])c12)C(N)=O (stereo not given in full)
Second: CC(NC(=O)Cc1ccccc1)NC(=O)C(C)C(=O)Nc1ccccc1 (stereo not given)
The TGI of the first is lower: 0.25 µM for the first, over 100 µM for the second.

First: COc1ccc(-c2nc(SCC(=O)NNC(=S)Nc3ccccc3)[nH]c2-c2ccc(OC)cc2)cc1
Second: COc1ccc(C(=O)/C=C/c2ccc(OCCCOc3ccc(/C=C/C(=O)c4ccc(OC)cc4)cc3)cc2)cc1
The TGI of the first is lower: 85 µM for the first, over 100 µM for the second.

O=C(O)c1ccccc1CC(Cc1ccc2c(c1)CCC2)C(=O)O (stereo not given) and COC(=O)C(Cc1ccc2c(c1)CCC2)Cc1ccc2c(c1)CCC2 cannot be ordered by TGI: over 100 µM for the first, over 100 µM for the second.

Going from Cn1c(SCc2ccc(F)cc2)nnc1C12CC3CC(CC(C3)C1)C2 to COc1ccc(C2c3cn[nH]c3CC3CCCCC32)cc1 (stereo not given), the TGI falls from over 100 µM to 19 µM.

Compared with COC(=O)/C=C\C(C#N)(C#N)N=Cc1ccc(C)cc1, Cc1ccc(S(=O)(=O)n2c3c(c4ccccc42)CCN2C[C@H]([C@H](C)Br)CC[C@@H]32)cc1 is higher in TGI: 4.61 µM for the first, over 100 µM for the second.

CCCCCC#CCOC(=O)C(=[N+]=[N-])P(=O)(c1ccccc1)c1ccccc1 and O=C1OC(C2Cc3ccc4ccccc4c3C2=O)c2ccccc21 (stereo not given) cannot be ordered by TGI: over 10 µM for the first, over 100 µM for the second.

COc1ccc(N2C(=O)CC(=O)N(NC(=O)C(C)Oc3ccccc3C)C2=S)cc1 (stereo not given) and NS(=O)(=O)c1ccc(NC(=S)/N=C/C2=C(O)c3ccccc3C2=O)cc1 cannot be ordered by TGI: over 100 µM for the first, over 100 µM for the second.

First: COc1cc(OC)cc(C(=O)CC(=O)c2cc(OC)cc(OC)c2)c1
Second: COC1=CC(=O)c2c(c(-c3nc(C)cs3)cn2C)C1=O
The TGI of the first is higher: over 100 µM for the first, 53.4 µM for the second.

O=S(=O)(O)C(CO)c1ccccc1 (stereo not given) (tested in a mixture with another compound) and O=c1oc2cc(O)ccc2c(O)c1C(c1ccccc1)c1c(O)c2ccc(O)cc2oc1=O cannot be ordered by TGI: over 100 µM for the first, over 100 µM for the second.

O=C1c2ccccc2C(=O)N1n1c(Cc2ccc([N+](=O)[O-])cc2)n[nH]c1=O and COc1ccc(C2OC(c3ccncc3)=NN2C)cc1F (stereo not given) cannot be ordered by TGI: over 100 µM for the first, over 100 µM for the second.

Cc1nc(C)c(C(=O)NNC(=O)C[N+](C)(C)C)cc1C(=O)NNC(=O)C[N+](C)(C)C and C=C(C(=O)OCC)C(=O)OCC cannot be ordered by TGI: over 100 µM for the first, over 100 µM for the second.

O=C(O)CN1CCN2CCCCCN(CC1)CCN(CC(=O)O)CC2 and O=C(O)CN1CCNCCN(CC(=O)O)CCN(CC(=O)O)CCNCC1 cannot be ordered by TGI: over 100 µM for the first, over 100 µM for the second.

First: CCCNc1ncnc2c1ncn2C
Second: CC(C)SC(=S)Sc1c(Cl)c(Cl)nc(Cl)c1Cl
The TGI of the first is higher: over 100 µM for the first, 4.39 µM for the second.

Work on CCOS(C)(=O)=O yielded a TGI of over 100 µM.

CNc1cc2c(c3ccccc13)C(CCl)CN2C(=O)c1cc2cc(OC)c(OC)c(OC)c2[nH]1 (stereo not given) was tested, and the TGI was 0.0756 µM and 0.405 µM.
